Experimental data taken from PubChem BioAssay AID248 (DTP/NCI, 2004).
“And” between values parts separate entries of the source, which are not always exact repeats. Equal entries are not always repeated. Toxic doses and inconclusive results are not listed. No stated cut-off is given here; in the data, active means T/C of 150% or more; inactive means T/C below 125%.

System: L1210 leukemia ip in BDF1 mice, survival T/C
Test: NCI In Vivo Anticancer Drug Screen. Data for tumor model L1210 Leukemia (intraperitoneal) in B6D2F1 (BDF1) mice
Settings: endpoint: mean survival time, higher = longer survival
In short: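 Transplantable tumor model; survival measured in treated vs vehicle control mice. Value = treated/control.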

[1] = dose: 100.0 mg/kg/injection, schedule: Q04DX003 (ip), vehicle: Klucel (hydroxypropylcellulose) (HPC)
[2] = dose: 200.0 mg/kg/injection, schedule: Q04DX003 (ip), vehicle: Klucel (hydroxypropylcellulose) (HPC)
[3] = dose: 400.0 mg/kg/injection, schedule: Q04DX003 (ip), vehicle: Klucel (hydroxypropylcellulose) (HPC)
[4] = dose: 50.0 mg/kg/injection, schedule: Q01DX009 (ip), vehicle: Klucel (hydroxypropylcellulose) (HPC)
[5] = dose: 200.0 mg/kg/injection, schedule: Q01DX009 (ip), vehicle: Klucel (hydroxypropylcellulose) (HPC)
[6] = dose: 100.0 mg/kg/injection, schedule: Q01DX009 (ip), vehicle: saline
[7] = dose: 100.0 mg/kg/injection, schedule: Q04DX003 (ip), vehicle: saline

Measured: T/C

CCOC(=O)/C(=C\c1ccccc1)C(C)=O
inactive: [1] 101 % of control | [2] 92 % of control | [3] 104 % of control

Nc1sc(=S)nc2[nH]ncc12
inactive: [4] 90 % of control | dose: 100.0 mg/kg/injection, schedule: Q01DX009 (ip), vehicle: Klucel (hydroxypropylcellulose) (HPC) 96 % of control | [1] 98 % of control | [5] 93 % of control | [2] 95 % of control | [3] 95 % of control

N#CC1C2CCC(C2)C1CCCN (stereo not given)
inactive: dose: 25.0 mg/kg/injection, schedule: Q01DX009 (ip), vehicle: saline 108 % of control | dose: 25.0 mg/kg/injection, schedule: Q04DX003 (ip), vehicle: saline 102 % of control | dose: 50.0 mg/kg/injection, schedule: Q01DX009 (ip), vehicle: saline 106 % of control | dose: 50.0 mg/kg/injection, schedule: Q04DX003 (ip), vehicle: saline 95 % of control | [6] 98 % of control | [7] 95 % of control and 115 % of control

CCC1(CC)CC1(Cl)Cl
inactive: dose: 75.0 mg/kg/injection, schedule: Q01DX001 (ip), vehicle: acetone 108 % of control | dose: 150.0 mg/kg/injection, schedule: Q01DX001 (ip), vehicle: acetone 101 % of control

O=[N+]([O-])c1ccc(/C=C/C2OCCO2)cc1
inactive: dose: 50.0 mg/kg/injection, schedule: Q01DX001 (ip), vehicle: saline 98 % of control | dose: 100.0 mg/kg/injection, schedule: Q01DX001 (ip), vehicle: saline 96 % of control | dose: 200.0 mg/kg/injection, schedule: Q01DX001 (ip), vehicle: saline 101 % of control

CCc1c(Nc2ccccc2C)[nH]c(N)nc1=S
inactive: dose: 100.0 mg/kg/injection, schedule: Q01DX Z (ip), vehicle: methylcellulose (MC) 101 % of control | dose: 200.0 mg/kg/injection, schedule: Q01DX Z (ip), vehicle: methylcellulose (MC) 95 % of control

COc1ccc(OC)c(/C=C2\N=C(c3ccccc3)OC2=O)c1
inactive: dose: 100.0 mg/kg/injection, schedule: Q01DX001 (ip), vehicle: acetone 97 % of control | [6] 91 % of control | [7] 100 % of control | dose: 200.0 mg/kg/injection, schedule: Q01DX001 (ip), vehicle: acetone 101 % of control | dose: 200.0 mg/kg/injection, schedule: Q01DX009 (ip), vehicle: saline 94 % of control | dose: 200.0 mg/kg/injection, schedule: Q04DX003 (ip), vehicle: saline 96 % of control | dose: 400.0 mg/kg/injection, schedule: Q01DX001 (ip), vehicle: acetone 92 % of control | dose: 400.0 mg/kg/injection, schedule: Q01DX009 (ip), vehicle: saline 93 % of control | dose: 400.0 mg/kg/injection, schedule: Q04DX003 (ip), vehicle: saline 98 % of control

S=C(NCC1CCCO1)Nc1cccc2ccccc12 (stereo not given)
inactive: dose: 100.0 mg/kg/injection, schedule: Q04DX002 (ip), vehicle: Klucel (hydroxypropylcellulose) (HPC) 95 % of control | dose: 200.0 mg/kg/injection, schedule: Q04DX002 (ip), vehicle: Klucel (hydroxypropylcellulose) (HPC) 91 % of control | dose: 400.0 mg/kg/injection, schedule: Q04DX002 (ip), vehicle: Klucel (hydroxypropylcellulose) (HPC) 95 % of control

CSc1nnc([N+](=O)[O-])s1
inactive: dose: 6.25 mg/kg/injection, schedule: Q01DX009 (ip), vehicle: Klucel (hydroxypropylcellulose) (HPC) 94 % of control | dose: 12.5 mg/kg/injection, schedule: Q01DX009 (ip), vehicle: Klucel (hydroxypropylcellulose) (HPC) 90 % of control

O=C(Nc1ccc2c(c1)Cc1cccc(NC(=O)C(Cl)Cl)c1-2)C(Cl)Cl
inactive: [4] 95 % of control | [5] 89 % of control

O=c1oc(-c2cccc([N+](=O)[O-])c2)nc2cc(Cl)ccc12
inactive: dose: 50.0 mg/kg/injection, schedule: Q04DX002 (ip), vehicle: saline with Tween-80 90 % of control | dose: 100.0 mg/kg/injection, schedule: Q04DX002 (ip), vehicle: saline with Tween-80 93 % of control | dose: 200.0 mg/kg/injection, schedule: Q04DX002 (ip), vehicle: saline with Tween-80 93 % of control | dose: 400.0 mg/kg/injection, schedule: Q04DX002 (ip), vehicle: saline with Tween-80 107 % of control

CC12CCC(=O)C=C1CCC1C2CCC2(C)C(C(=O)CC(O)(C(F)(F)F)C(F)(F)F)CCC12 (stereo not given)
inactive: dose: 100.0 mg/kg/injection, schedule: Q01DX001 (ip), vehicle: Klucel (hydroxypropylcellulose) (HPC) 94 % of control | dose: 200.0 mg/kg/injection, schedule: Q01DX001 (ip), vehicle: Klucel (hydroxypropylcellulose) (HPC) 96 % of control | dose: 400.0 mg/kg/injection, schedule: Q01DX001 (ip), vehicle: Klucel (hydroxypropylcellulose) (HPC) 96 % of control
